Assay results as given in patent publication US20070155720A1, “Co-administration of dopamine-receptor binding compounds” (DarPharma, Inc., priority 2003, published 2007).
Structures can show the parent of a compound that is named as a salt. Where two headings read alike, the source gives them in different places. Values belong to the compound of their own block, whether it stands above or below them.

Legend:
dopamine D1 receptor = dopamine D1 receptor (Homo sapiens, UniProt P21728); experiment: D1 activity of hexahydrobenzo[a]phenanthridines, structure-activity statements; settings: relative to dihydrexidine
D1 receptors = target: T1, D1 receptors (Rattus norvegicus, UniProt P18901); experiment: Affinity for D1 receptors in rat brain striatal homogenates labeled with 3H-SCH 23390; format: binding; settings: for D1:D2 Selectivity: ratio of D2 to D1 affinity, rat striatal homogenates
T1 construct: utilizing rat brain striatal homogenates having D1 and D2 receptors; from tissue; host or cells: rat brain striatum homogenate

D2 receptor = D2 receptor (Homo sapiens, UniProt P14416); experiment: D2 potency of substituted hexahydrobenzo[a]phenanthridines, structure-activity statement; settings: relative to dihydrexidine
D1 receptor = D1 receptor (Homo sapiens, UniProt P21728); experiment: Affinity and selectivity for the D1 receptor stated in the description, no method given; format: binding; settings: exemplary compounds, b98
[1] = test system: adenylate cyclase in rat brain striatum; experiment: Activation of adenylate cyclase in rat brain striatum; format: biochemical; settings: compared with dopamine
D2L receptors = D2L receptors (Homo sapiens, UniProt P14416); experiment: Inhibition of forskolin-stimulated adenylate cyclase through D2L receptors in CHO cells; format: cell-based; settings: compared with quinpirole
D4 receptor [2] = target: T2, D4 receptor (Rattus norvegicus, UniProt P30729); experiment: Inhibition of forskolin-stimulated adenylate cyclase through D4 receptors in CHO cells; format: cell-based
T2 sequence (P30729 1-387): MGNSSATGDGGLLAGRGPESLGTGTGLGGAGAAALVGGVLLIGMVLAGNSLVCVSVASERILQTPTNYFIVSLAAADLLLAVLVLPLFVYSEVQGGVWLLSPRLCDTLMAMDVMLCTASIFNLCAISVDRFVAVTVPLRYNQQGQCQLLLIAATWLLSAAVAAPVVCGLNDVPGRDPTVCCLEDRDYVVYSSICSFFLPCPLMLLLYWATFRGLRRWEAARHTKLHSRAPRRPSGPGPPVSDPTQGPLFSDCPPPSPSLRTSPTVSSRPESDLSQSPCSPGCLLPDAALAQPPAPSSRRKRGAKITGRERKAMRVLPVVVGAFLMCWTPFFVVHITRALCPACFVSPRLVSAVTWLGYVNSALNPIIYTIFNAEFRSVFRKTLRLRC

[3] = Half-life and duration of functional activity; format: in vivo
D4 receptor [4] = target: T2, D4 receptor; experiment: Binding, cloned D4 receptor in CHO cells; set-up: expressed in transfected cells; host or cells: CHO cells; settings: read-out: Cloned Receptors D4 CHO (rat)
monkeys = settings: aged and reserpine-treated monkeys; cited from earlier work
[5] = test system: rats with scopolamine-induced deficits; experiment: Passive avoidance in rats, scopolamine-induced amnesia; format: in vivo, rat; settings: 3.0 mg/kg ip
Protocol: The protocol summarized below is one of many variants of the passive avoidance procedure using scopolamine-induced amnesia (for review see Rush, Behav Neural Biol 50:255-274, 1988). This procedure is commonly used to identify drugs that may be useful in treating cognitive deficits, particularly those observed in AD. The effects of the D
Testing was conducted in standard 2-compartment rectangular passive avoidance chambers (San Diego Instruments, San Diego, Calif.) with black plexiglas sides and grid floors. The light compartment of the chambers were illuminated by a 20 W lamp located in this compartment; the dark side of the chambers will be shielded from light, except for light penetrating the opening connecting the two compartments of each chamber.
On training day, groups of 8 rats were injected with scopolamine (3.0 mg/kg, ip) or vehicle (1.0 ml/kg) 30 min prior to training. Scopolamine served as the dementing agent in this experiment. Ten min prior to training, each group of rats received a second injection of vehicle or a dose of DHX. At the end of the pretreatment interval, each rat was placed individually in the light compartment facing away from the opening between compartments. The latency for each rat to travel from the light to the dark compartment was measured up to a maximum of 300 sec; any animal not entering the dark compartment within 300 sec was discarded from the test group. Once the animal entered the dark compartment completely, a 1.0 milliampere, 3.0 sec scrambled shock was delivered to the entire grid floor. The animal was allowed to remain in the dark compartment during this 3.0 sec period or to escape to the light compartment. Each rat was then returned immediately to its home cage.
Twenty-four hr after training, each rat was tested in the same apparatus for retention of the task (to remain passively in the light compartment). […] The latency for animals to enter the dark compartment on test day (step-through latency) was recorded up to a maximum of 600 sec. Each animal was used only once in a single experiment.
A one-way analysis of variance (ANOVA) and Newman-Keuls post-hoc comparisons were used to identify significant deficits in passive avoidance responding produced by scopolamine and their reversal by DHX; a p value of less than 0.05 was used as the level of significance.

T1 sequence (P18901 whole entry): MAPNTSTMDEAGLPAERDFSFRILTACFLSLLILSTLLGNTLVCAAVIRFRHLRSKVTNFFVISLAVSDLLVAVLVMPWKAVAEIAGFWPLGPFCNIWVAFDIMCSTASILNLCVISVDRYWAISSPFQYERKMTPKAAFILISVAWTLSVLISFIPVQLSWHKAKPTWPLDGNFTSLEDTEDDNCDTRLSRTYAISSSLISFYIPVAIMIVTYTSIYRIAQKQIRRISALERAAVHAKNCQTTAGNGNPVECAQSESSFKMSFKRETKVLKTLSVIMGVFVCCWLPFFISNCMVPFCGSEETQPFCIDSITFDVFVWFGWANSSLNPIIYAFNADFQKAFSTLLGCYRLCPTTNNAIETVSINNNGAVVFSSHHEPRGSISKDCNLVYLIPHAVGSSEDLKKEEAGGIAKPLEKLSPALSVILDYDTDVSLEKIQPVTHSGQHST
Sequence of dopamine D1 receptor (P21728 whole entry): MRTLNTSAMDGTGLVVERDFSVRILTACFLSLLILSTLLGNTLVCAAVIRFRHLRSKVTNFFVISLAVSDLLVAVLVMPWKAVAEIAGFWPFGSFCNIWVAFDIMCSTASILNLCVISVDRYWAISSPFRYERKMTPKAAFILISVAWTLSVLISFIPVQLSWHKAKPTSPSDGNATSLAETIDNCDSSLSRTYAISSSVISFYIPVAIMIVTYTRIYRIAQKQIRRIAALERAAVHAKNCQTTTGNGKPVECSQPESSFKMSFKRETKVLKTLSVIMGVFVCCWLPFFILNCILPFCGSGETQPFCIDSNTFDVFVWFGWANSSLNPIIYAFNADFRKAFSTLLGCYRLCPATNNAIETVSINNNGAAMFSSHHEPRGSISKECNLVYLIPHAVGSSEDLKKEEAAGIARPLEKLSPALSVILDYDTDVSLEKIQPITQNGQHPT
Sequence of D2 receptor (P14416 whole entry): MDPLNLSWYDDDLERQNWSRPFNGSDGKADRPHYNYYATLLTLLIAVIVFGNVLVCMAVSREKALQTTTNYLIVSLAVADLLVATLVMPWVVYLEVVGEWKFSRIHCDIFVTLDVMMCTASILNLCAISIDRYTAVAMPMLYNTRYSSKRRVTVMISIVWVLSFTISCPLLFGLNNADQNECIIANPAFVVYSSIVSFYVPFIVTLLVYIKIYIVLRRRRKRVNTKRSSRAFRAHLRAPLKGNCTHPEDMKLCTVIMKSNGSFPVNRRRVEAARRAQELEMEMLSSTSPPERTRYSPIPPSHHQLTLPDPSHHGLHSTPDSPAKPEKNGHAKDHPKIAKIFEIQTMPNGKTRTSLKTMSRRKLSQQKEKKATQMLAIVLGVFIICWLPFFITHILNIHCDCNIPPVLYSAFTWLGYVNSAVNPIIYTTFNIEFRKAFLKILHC
Sequence of D2L receptors (P14416 whole entry): as above
Sequence of D1 receptor (P21728 whole entry): as the sequence (P21728 whole entry) above

melting point: 258 °C (dec.)
Compound: Oc1ccc2c(c1O)Cc1cccc3c1C2CNC3 (centres unmarked) (as salt: hydrobromid) [Compound 29, 8,9-Dihydroxy-2,3,7,11b-tetrahydro-1H-napth[1,2,3-de]isoquinoline]

melting point: 195 °C (dec.)
Compound: Cc1cccc2c1CN[C@H]1CCc3cc(O)c(O)cc3[C@H]21.Cl (relative stereo)

Compound: Cc1ccc2c(c1)[C@H]1c3cc(O)c(O)cc3CC[C@@H]1NC2.Cl (relative stereo) [Compound 6b, Trans-2-methyl-10,11-dihydroxy-5,6,6a,7,8,12b-hexahydrobenzo [a]phenanthridine hydrochloride]
D1 potency and efficacy (dopamine D1 receptor): comparable to dihydrexidine
melting point: 190 °C (dec.)

Compound: Cc1ccc2c(c1)CN[C@H]1CCc3cc(O)c(O)cc3[C@H]21.Cl (relative stereo) [Compound 6c, Trans-3-methyl-10,11-dihydroxy-5,6,6a,7,8,12b-hexahydrobenzo[a]phenanthridine hydrochloride]
Ki (D1 receptors): 7 nM
D1:D2 Selectivity (D1 receptors): 6
D1 potency and efficacy (dopamine D1 receptor): comparable to dihydrexidine
D2 potency (D2 receptor): greater D2 potency
melting point: 190 °C (dec.)

Compound: Cl.Oc1cc2c(cc1O)[C@@H]1c3cc(Cc4ccccc4)ccc3CN[C@H]1CC2 (relative stereo) [Compound 6e, Trans-2-benzyl-10,11-dihydroxy-5,6,6a,7,8,12b-hexahydrobenzo[a]phenanthridine hydrochloride]
Ki (D1 receptors; rat brain striatal homogenates, 3H-SCH 23390, read-out: D1 Affinity): 290 nM
D1:D2 Selectivity (D1 receptors): 0.6

melting point: 298 to 302 °C (dec.)
Compound: Br.Oc1ccc2c(c1O)Oc1cccc3c1C2CNC3 (centres unmarked) [Compound 16a, 8,9-dihydroxy-1,2,3,11b-tetrahydrochromeno[4,3,2-de]isoquinoline hydrobromide]
D1:D2 selective (D1 receptor): equally high affinity for both receptor subtypes

melting point: 251 to 253 °C (dec.)
Compound: C=CCN1Cc2cccc3c2C(C1)c1ccc(O)c(O)c1O3 (centres unmarked) [Compound 16b, N-allyl-8,9-dihydroxy-1,2,3,11b-tetrahydrochromeno[4,3,2-de]isoquinoline]

melting point: 259 to 264 °C (dec.)
Compound: CCCN1Cc2cccc3c2C(C1)c1ccc(O)c(O)c1O3 (centres unmarked) [Compound 16c, N-propyl-8,9-dihydroxy-1,2,3,11b-tetrahydrochromeno[4,3,2-de]isoquinoline]

Effectiveness in activating adenylate cyclase [1]: as effective as dopamine
Effectiveness in activating adenylate cyclase when receptor reserve is reduced ([1]; receptor reserve reduced): as effective as dopamine
Agonist activity for inhibition of cAMP synthesis at D2L receptors (D2L receptors): full agonist
Agonist activity for inhibition of cAMP synthesis at D4 receptors (D4 receptor [2]): full agonist
EC50 (D4 receptor [2]; inhibition of forskolin-stimulated AC, mean ± SEM, at least three experiments, read-out: EC50 (nM) ± SEM, D4): 60 ± 18 nM
Duration of functional activity ([3]; in vivo): 7 to 10 h
half-life ([3]; serum, read-out: Serum half-life (converted)): 3 h
Ki (D4 receptor [4]): 60 nM
Compound: Oc1ccc2c(c1O)Cc1cccc3c1C2CNC3 (centres unmarked) [Compound 29, 8,9-Dihydroxy-2,3,7,11b-tetrahydro-1H-napth[1,2,3-de]isoquinoline]

Compound: Oc1cc2c(cc1O)C(c1ccccc1)CNCC2 (centres unmarked) [SKF 38393, reference compound]
Spatial working memory (monkeys): improved spatial working memory

Compound: CN1[C@@H]2C[C@@H](OC(=O)[C@H](CO)c3ccccc3)C[C@H]1[C@@H]1O[C@@H]12 [Scopolamine, reference compound]
Acquisition of the passive avoidance task [5]: severe deficit

Compound: NCCc1ccc(O)c(O)c1 [dopamine]
EC50 (D4 receptor [2]; read-out: EC50 (nM) ± SEM, D4, inhibition of forskolin-stimulated AC, mean ± SEM, at least three experiments): 1750 ± 682 nM
